These results are taken from US20220017541A1, “INHIBITORS OF ARGINASE” (Black Belt Tx Ltd, priority 2018, published 2022).

Series [1] deals with T1, native ARG1 enzyme in lysates of RBC (Homo sapiens, UniProt P05089).
T1 construct: native ARG1 enzyme in lysates of RBC; from tissue; host or cells: human red blood cell lysates from healthy donors
T1 sequence (P05089 1-322): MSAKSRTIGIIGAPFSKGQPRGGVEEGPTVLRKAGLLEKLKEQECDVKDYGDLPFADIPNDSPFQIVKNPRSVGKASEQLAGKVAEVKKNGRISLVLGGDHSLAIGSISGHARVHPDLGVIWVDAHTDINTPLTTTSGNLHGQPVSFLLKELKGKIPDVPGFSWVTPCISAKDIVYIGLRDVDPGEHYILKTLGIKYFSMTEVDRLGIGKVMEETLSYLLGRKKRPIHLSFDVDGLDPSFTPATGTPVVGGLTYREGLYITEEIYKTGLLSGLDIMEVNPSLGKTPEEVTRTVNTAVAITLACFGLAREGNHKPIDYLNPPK
As to the kind of experiment: Arginase enzymatic assay in RBC lysates from healthy donors. Format: biochemical. As to conditions: human red blood cell lysates; read-out: IC50 Inh RBC. The source says: Arginase catalyzes the hydrolysis of L-arginine into L-ornithine and urea. Urea amount produced by this reaction can be detected using a colorimetric assay and used as an indirect measurement of arginase activity. An adapted protocol from (Baggio, R., et al., J Pharmacol Exp Ther, 1999. 290(3): p. 1409-16) was used for the testing the ability of exemplary compounds of the invention to inhibit arginase enzymes from a variety of sources including recombinant human ARG1 and 2, lysates of human red blood cells (RBC) and intact murine macrophages, as described below.
Compounds of the invention were prepared from powder as 10 mM stock solutions in DMSO and stored in presence of N2 neutral atmosphere at −80° C. For IC50 determination and just before the assay, exemplary compounds were successively diluted to get the following concentrations: 210, 70, 21, 7, 2.1, 0.7, 0.21, 0.07, 0.021, 0.007, 0.0021 and 0.0007 μM (i.e., final concentrations in the wells of 30, 10, 3, 1, 0.3, 0.1, 0.03, 0.01, 0.003, 0.001, 0.0003, 0.0001 μM).
Assays were run in clear flat bottom 96-well plates (Nunclon, Cat. No. #167008) adding in each well the following solutions in this order: (1) 10 μl of Tris-HCl solution supplemented with 0.1% bovine serum albumin (BSA) containing 1.563 μg/ml recombinant human ARG1 (R&D System, Cat. No. #5868-AR-010), (2) 30 μl of Tris-HCl buffer containing 10 mM MnCl2 and (3) 10 μL of a pre-dilution of each test article or DMSO (vehicle). Compounds were allowed to interact with the enzyme-cofactor complex pre-incubating the plate at 37° C. for 30 min. To start the reaction, 20 μl of 50 mM L-arginine (Sigma Aldrich Cat. #A5006-100G) were added to each well in exception of the blank reaction (see below). All reactions were allowed to happen for 1 h at 37° C. To detect the urea production, reactions were stopped by adding 200 μl of a mixture of reagent A (4 mM o-phthalaldehyde in 50 mM Boric Acid, 1 M Sulfuric Acid, 0.03% Brij-35 (w/v)) and reagent B (4 mM N-(1-naphthyl)ethylenediamine in 50 mM Boric Acid, 1 M Sulfuric Acid, 0.03% Brij-35 (w/v)) in equal proportion. Color product was developed for 1 h at room temperature (RT) protected from light and then absorbance at 520 nm was measured using a Multifunction Microplate Reader (Synergy 4, Bioteck). Blank reactions were carried out by adding the L-arginine substrate only after the addition of mixture A-B. All reactions were carried out in duplicates.
The inhibition of urea production was calculated subtracting the absorbance from the blank reaction (zero enzymatic urea production) to the absorbance from all reactions and it was expressed as the percentage of the absorbance from the reaction containing the test article with respect to the absorbance from vehicle reaction (maximum of urea production).
For testing inhibitory activity over RBC lysates from healthy donors, 10 μl of Tris-HCl solution supplemented with 0.1% BSA containing 160 μg RBC lysates per well was used instead.

Series [2] can be described thus: Plasma concentration after single IV or PO dose in mice (LC/MS/MS). As to conditions: 30 min after dosing. Also noted: Plasma concentration PO @ t = 30 min: dose or concentration left out as unconfirmed. The class given is in vivo. Here is the method: Compounds were formulated at 0.4 and 1 mg/ml in a vehicle containing Poly-Ethylene Glycol 400 (PEG400; Cat. No. #91893, Sigma Aldrich) as dosing solutions for intravenous and oral administration, respectively. Male C57BL6 mice, approximately 8-10 weeks old (22-25 grams), were obtained from the vivarium Fundación Ciencia & Vida Chile (Santiago, Chile) and maintained in a temperature-controlled room with 12/12 hr light/dark schedule with food and water ad libitum. Animals were acclimated for a minimum period of 4 days upon arrival at the testing facility.
At the day of study, mice were weighed, identified by marking the tail with numbers using a non-toxic permanent marker and designated into the experimental groups (n=3 per group). Each mouse of IV dosing groups received the systemic administration of 2 mg/kg dosing solution via caudal vein. […] No.: FTP-2038; Instech Salomon Inc.).
Blood samples were harvested by terminal cardiac puncture at 30 min after dosing. Non-dosed mice were used to collect samples of zero time points. Whole blood was collected into microtainer tubes with (K2) EDTA (Cat. No.: 365974, Becton Dickinson & Co.). Blood samples were centrifuged immediately at 9,000 g at 4° C. for 5 min and then plasmas were separated. Plasma samples were placed into individually labeled cryovials and stored in a −80° C. freezer until LC/MS/MS bioanalysis.
The bioanalysis of plasma samples to determine concentrations of exemplary compounds of the invention was conducted with a QTRAP 4500 triple quadrupole mass spectrometer (Applied Biosystems SCIEX) in the positive ion mode and interfaced with an ekspert ultraLC 100-XL UPLC System (eksigent). Calibration standards (0.01 to 100 μM) and QCs (0.2, 2.0 and 20 μM) were prepared from naïve mouse plasma in parallel with mouse plasma study samples (60 μl) by precipitation with three volumes of ice cold internal standard solution (acetonitrile containing 20 μM of theophylline). The precipitated samples were centrifuged at 6,100 g for 30 min at 4° C. Following centrifugation, an aliquot of each supernatant was transferred into a clean sample vial and diluted with two volumes of aqueous mobile phase (0.2% formic acid in water). Samples were injected onto a reverse phase analytical column (YMC Triart C18; 2.0×50 mm; 1.9 μm; YMC CO) and eluted with a gradient of 0.1 or 0.2% formic acid in Acetonitrile. Test compound and internal standard were monitored by a multiple reaction monitoring (MRM) experiment using an Analyst software (v 1.6.2, Applied Biosystems SCIEX). Quantitation was conducted using a MultiQuant software (v 2.1, Applied Biosystems SCIEX) and the resulting calibration curve was fitted with a linear or quadratic regression and 1/× weighting. The lower limit of quantitation were between 0.01-0.03 μM.
IV and PO PK parameters were calculated from the concentration-time data using Phoenix WinNonlin software (v 6.4, Certara, Princeton, N.J.) by noncompartmental analysis in the sparse sampling mode.

Consider `NC(CCCCB(O)O)(C(=O)O)C1CCN(C2CCc3ccccc32)CC1` (single isomer, unassigned) [Compound 2, 2-amino-6-borono-2-(1-(2,3-dihydro-1H-inden-1-yl)piperidin-4-yl)hexanoic acid], for which, in series [1], the IC50 was less than 500 nM. Besides, the “Plasma concentration PO @ t = 30 min” value in series [2] is on record as “+ (plasma concentration < 500 nM)”.

With `NC(CCCCB(O)O)(C(=O)O)C1CCN(C2CCc3ccccc32)CC1` (single isomer, unassigned) [Compound 3, 2-amino-6-borono-2-(1-(2,3-dihydro-1H-inden-1-yl)piperidin-4-yl)hexanoic acid], the IC50 in series [1] is greater than 5000 nM.

In the case of `NC(CCCCB(O)O)(C(=O)O)C1CCN(C2CCCc3ccccc32)CC1` (single isomer, unassigned) [Compound 4, 2-amino-6-borono-2-(1-(1,2,3,4-tetrahydronaphthalen-1-yl)piperidin-4-yl)hexanoic acid], in series [1], the IC50 is less than 500 nM.

In the case of `NC(CCCCB(O)O)(C(=O)O)C1CCN(C2CCCc3ccccc32)CC1` (single isomer, unassigned) [Compound 5, 2-amino-6-borono-2-(1-(1,2,3,4-tetrahydronaphthalen-1-yl)piperidin-4-yl)hexanoic acid], the IC50 in series [1] is less than 500 nM. Moreover, in series [2], the “Plasma concentration 2 mg/Kg IV @ t = 30 min” value is listed as “++ (plasma concentration > 1000 nM for test compound)” and the “Plasma concentration PO @ t = 30 min” value is “+ (plasma concentration < 500 nM)”.

Consider `NC(CCCCB(O)O)(C(=O)O)C1CCN(C2CCCc3ccccc32)CC1` (single isomer, unassigned) [Compound 6, 2-amino-6-borono-2-(1-(1,2,3,4-tetrahydronaphthalen-1-yl)piperidin-4-yl)hexanoic acid], for which, in series [1], the IC50 was greater than 5000 nM.

With `CC(c1ccccc1)N1CCC(C(N)(CCCCB(O)O)C(=O)O)CC1` (single isomer, unassigned) [Compound 10, 2-amino-6-borono-2-(1-(1-phenylethyl)piperidin-4-yl)hexanoic acid], the IC50 in series [1] was less than 500 nM. In series [2], the “Plasma concentration 2 mg/Kg IV @ t = 30 min” value is on record as “+ (plasma concentration < 500 nM)” and the “Plasma concentration PO @ t = 30 min” value was “+ (plasma concentration < 500 nM)”.

In the case of `CC(c1ccccc1)N1CCC(C(N)(CCCCB(O)O)C(=O)O)CC1` (single isomer, unassigned) [Compound 11, 2-amino-6-borono-2-(1-(1-phenylethyl)piperidin-4-yl)hexanoic acid], in series [1], the IC50 is greater than 5000 nM.

With `NC(CCCCB(O)O)(C(=O)O)C1CCN(C2CCc3cc(Cl)ccc32)CC1` (single isomer, unassigned) [Compound 14, 2-amino-6-borono-2-[1-(5-chloroindan-1-yl)-4-piperidyl]hexanoic acid], the IC50 in series [1] is less than 500 nM.

For `NC(CCCCB(O)O)(C(=O)O)C1CCN(C2CCCc3cc(Cl)ccc32)CC1` (single isomer, unassigned) [Compound 17, 2-amino-6-borono-2-(1-(6-chloro-1,2,3,4-tetrahydronaphthalen-1-yl)piperidin-4-yl)hexanoic acid], the IC50 in series [1] was less than 500 nM.

Take `CNC(CCCCB(O)O)(C(=O)O)C1CCN(C2CCCc3ccccc32)CC1` (single isomer, unassigned) [Compound 79, 6-borono-2-(methylamino)-2-(1-(1,2,3,4-tetrahydronaphthalen-1-yl)piperidin-4-yl)hexanoic acid]: the IC50 in series [1] is less than 500 nM.

Take `NC(CCCCB(O)O)(C(=O)O)C1CCN(C2CCCc3ccc(F)cc32)CC1` (single isomer, unassigned) [Compound 83, 2-amino-6-borono-2-(1-(7-fluoro-1,2,3,4-tetrahydronaphthalen-1-yl)piperidin-4-yl)hexanoic acid]: in series [1], the IC50 is less than 500 nM. The “Plasma concentration PO @ t = 30 min” value in series [2] is “+ (plasma concentration < 500 nM)”.

Turning to `NC(CCCCB(O)O)(C(=O)O)C1CCN(C2CCCCc3ccccc32)CC1` (single isomer, unassigned) [Compound 84, 2-amino-6-borono-2-(1-(6,7,8,9-tetrahydro-5H-benzo[7]annulen-5-yl)piperidin-4-yl)hexanoic acid], the IC50 in series [1] is less than 500 nM.

For the molecule `NC(CCCCB(O)O)(C(=O)O)C1CCN(C2CCc3cc(C(F)(F)F)ccc32)CC1` (single isomer, unassigned) [Compound 85, 2-amino-6-borono-2-[1-[5-(trifluoromethyl)indan-1-yl]-4-piperidyl]hexanoic acid], in series [1], the half-maximal inhibitory concentration (IC50) was less than 500 nM.

As to `NC(CCCCB(O)O)(C(=O)O)C1CCN(C2CCc3ccccc32)CC1` (stereo not shown) [Compound 1, 2-amino-6-borono-2-(1-(2,3-dihydro-1H-inden-1-yl)piperidin-4-yl)hexanoic acid], in series [1], the IC50 was less than 500 nM.

In the case of `CC(c1ccccc1)N1CCC(C(N)(CCCCB(O)O)C(=O)O)CC1` (stereo not shown) [Compound 9, 2-amino-6-borono-2-(1-(1-phenylethyl)piperidin-4-yl)hexanoic acid], in series [1], the IC50 was less than 500 nM.

Take `CC1(C)OB(CCCCC(N)(C(=O)O)C2CCN(C3CCCc4ccccc43)CC2)OC1(C)C` (stereo not shown) [Compound 77, 2-amino-2-(1-(1,2,3,4-tetrahydronaphthalen-1-yl)piperidin-4-yl)-6-(4,4,5,5-tetramethyl-1,3,2-dioxaborolan-2-yl)hexanoic acid]: the IC50 in series [1] was less than 500 nM.
